Where two headings read alike, the source gives them in different places.
Experiments:
[1] = tested on: A431 cells; assay: Alamar Blue cell viability/cytotoxicity assay, A431; assay type: cell-based; settings: Homo sapiens
Excerpt: (§1) To assess the cytotoxic activity of GLY, IMD and IMZ, six cell lines, namely Caco-2 (human epithelial colorectal adenocarcinoma; Cell Lines Service (CLS), Eppelheim, Germany), HepG2 (human hepatocellular carcinoma; ATCC, Rockville, USA), A431 (human epidermoid carcinoma; CLS, Eppelheim, Germany), HaCaT (human keratinocytes, CLS, Eppelheim, Germany), SK-MEL-5 (human skin melanoma; CLS, Eppelheim, Germany), and RAW 264.7 (mouse macrophages, Abelson murine leukaemia virus-induced tumour; CLS, Eppelheim, Germany) cells, were used. All cell lines were cultured in complete culture media, composed of Dulbecco’s Modified Eagle Media (DMEM), supplemented with 1 mM L-glutamine, 10% (v/v) foetal bovine serum (FBS), and antibiotics (penicillin at 100 U/mL, and streptomycin at 100 μg/mL) and maintained in an incubator (5% CO2/95% air; 37 °C, controlled humidity). Cells were grown, in T25 culture flasks, to near confluence.
(§2) Near confluence, all cell lines, except RAW 264.7 cells, were subjected to enzymatic treatment (trypsin-EDTA) for detachment and subculture, as described by Andreani et al. and by Silva et al., which was stopped using complete culture medium (1:1, trypsin:culture media) as soon as cells were detached. RAW 264.7 cells were scratched off from the culture flasks using a cell scratcher (Orange Scientific; Braine-L’Alleud, Belgium), handling was performed, as described by Silva et al.. Once detached from the flasks, cells were gently separated and re-suspended using a Pasteur pipette, counted using an automated cell counter (TC10™, BIORAD, Lisbon, Portugal). Then, cells were re-suspended in fresh culture media (at 5 × 10^4 cells/mL) and seeded into 96-well microplates (100 µL/well) which were maintained in an incubator, for 48 h (to adhere and stabilize) before being used. For other details, see [24, 25].
(§3) Alamar Blue® (AB) assay was performed to assess the in vitro effect of the pesticides on cell viability. In summary, cells seeded into 96-well microplates were treated with various concentrations of the pesticides (GLY: 0–1 mM; IMD: 0–1 mM; IMZ: 0–0.3 mM). Test solutions were prepared in FBS-free culture media by diluting the appropriate volume of respective stock solution. A stock solution of GLY was prepared in water (at 40 mM), and stock solutions of IMD and IMZ were prepared in DMSO (at 20 mM). After 24 h or 48 h of exposure, the test solutions were removed and immediately replaced with Alamar Blue solution (100 µL/well; 10% (v/v) in FBS-free medium), followed by an additional 5 h incubation. Then, absorbance was read at 570 and 620 nm using a microplate reader (Multiskan EX; MTX Lab Systems, Inc., Bradenton, FL, USA), and the percentage of AB reduction was calculated according to manufacturers’ instructions, as described. Cell viability was calculated and expressed as percentage of control cells (non-exposed cells).

[2] = tested on: RAW 264.7 cells; assay: Alamar Blue cell viability/cytotoxicity assay, RAW 264.7; assay type: cell-based; settings: Mus musculus
Excerpt: as §1, §2, §3

[3] = cited from earlier work
[4] = n-octanol/water; Pubchem and INCHEM; cited from earlier work
[5] = tested on: HaCaT cells; assay: Alamar Blue cell viability/cytotoxicity assay, HaCaT; assay type: cell-based; settings: Homo sapiens
Excerpt: as §1, §2, §3

[6] = tested on: SK-MEL-5 cells; assay: Alamar Blue cell viability/cytotoxicity assay, SK-MEL-5; assay type: cell-based, human; settings: for IC50: Homo sapiens
Procedure: (§4) Cells were grown, in T25 culture flasks, to near confluence.
as §2, §3

[7] = as above; assay type: cell-based, human; settings: human; SK-MEL-5, 50 µM, 48 h
Procedure: as §4, §2, §3

[8] = tested on: CYP3A4; design: method as in PMID 19070657; settings: cited from earlier work
[9] = tested on: HepG2 cells; assay: Alamar Blue cell viability/cytotoxicity assay, HepG2; assay type: cell-based, human; settings: for IC50: Homo sapiens
Excerpt: as §1, §2, §3

[10] = Figure 4A; cited from earlier work
[11] = tested on: Caco-2 cells; assay: Alamar Blue cell viability/cytotoxicity assay, Caco-2; assay type: cell-based, human; settings: for cell viability reduction: Caco-2, 300 µM; for IC50: Homo sapiens
Procedure: as §4, §2, §3

[12] = as above; assay type: cell-based, human; settings: human, 48 h
Procedure: as §4, §2, §3

[13] = tested on: Caco-2 cells; settings: cited from earlier work; for IC50: Caco-2, 24 h
[14] = tested on: HepG2 cells; settings: cited from earlier work
[15] = tested on: Caco-2, HepG2, A431, HaCaT, SK-MEL-5 and RAW 264.7 cells; assay: Alamar Blue cell viability, all tested cell lines; assay type: cell-based; settings: up to 1 mM (highest tested concentration)
Excerpt: To assess the cytotoxic activity of GLY, IMD and IMZ, six cell lines, namely Caco-2 (human epithelial colorectal adenocarcinoma; Cell Lines Service (CLS), Eppelheim, Germany), HepG2 (human hepatocellular carcinoma; ATCC, Rockville, USA), A431 (human epidermoid carcinoma; CLS, Eppelheim, Germany), HaCaT (human keratinocytes, CLS, Eppelheim, Germany), SK-MEL-5 (human skin melanoma; CLS, Eppelheim, Germany), and RAW 264.7 (mouse macrophages, Abelson murine leukaemia virus-induced tumour; CLS, Eppelheim, Germany) cells, were used. […]
Near confluence, all cell lines, except RAW 264.7 cells, were subjected to enzymatic treatment (trypsin-EDTA) for detachment and subculture, as described by Andreani et al. and by Silva et al., which was stopped using complete culture medium (1:1, trypsin:culture media) as soon as cells were detached. […] Once detached from the flasks, cells were gently separated and re-suspended using a Pasteur pipette, counted using an automated cell counter (TC10™, BIORAD, Lisbon, Portugal). […]
Alamar Blue® (AB) assay was performed to assess the in vitro effect of the pesticides on cell viability. […] Then, absorbance was read at 570 and 620 nm using a microplate reader (Multiskan EX; MTX Lab Systems, Inc., Bradenton, FL, USA), and the percentage of AB reduction was calculated according to manufacturers’ instructions, as described. […]

[16] = cited from earlier work; remark: listed apart in the source
[17] = tested on: HaCaT cells; settings: cited from earlier work
[18] = tested on: SK-MEL-2; design: method as in PMID 23535362; settings: SK-MEL-2, 72 h exposure; cited from earlier work

Molecule `C=CCOC(Cn1ccnc1)c1ccc(Cl)cc1Cl` (centres unmarked) [Imazalil, imazalil] has an IC50 ([1]; A-431, A431, 24 h exposure, mean ± S.D., read-out: IC50) of 145 ± 1.7 µM, an IC50 ([1]; A-431, A431, 48 h exposure, mean ± S.D., read-out: IC50) of 117 ± 6.5 µM and an IC50 ([2]; RAW264.7, RAW 264.7, 24 h exposure, mean ± S.D., read-out: IC50) of 31.3 ± 2.7 µM. The IC50 ([2]; RAW264.7, RAW 264.7, 48 h exposure, mean ± S.D., read-out: IC50) was 7.21 ± 4.5 µM, the pKa [3] was 6.53 and the “log Pow” value [4] was 4.56. The IC50 ([5]; 24 h exposure, mean ± S.D., read-out: IC50) was 174 ± 15.3 µM, the IC50 ([5]; 48 h exposure, mean ± S.D., read-out: IC50) was 120 ± 6.2 µM and the IC50 ([6]; SK-MEL-5, 24 h exposure, mean ± S.D., read-out: IC50) was 156 ± 9 µM. For the same molecule, the IC50 ([6]; SK-MEL-5, 48 h exposure, mean ± S.D., read-out: IC50) was 76.7 ± 1.8 µM, the “reduction in cell viability” value ([6]; SK-MEL-5, 50 µM, 48 h) was “about 20%” and the viability at 48 h, 50 µM [7] was roughly 80%. The CYP3A4 inhibition [8] was “inhibit CYP3A4”, the “concentration at which a significant reduction in cell viability was observed” value ([9]; HepG2) was 50 µM and the IC50 ([9]; HepG2, 24 h exposure, mean ± S.D., read-out: IC50) was 93.7 ± 2.2 µM. The IC50 ([9]; HepG2, 48 h exposure, mean ± S.D., read-out: IC50) was 47.1 ± 0.5 µM, the H-donor acceptor count [10] was 2 and the cell viability reduction ([11]; 24 h) was 94.13%. The cell viability reduction ([11]; 48 h) was 98.06%, the IC50 ([11]; Caco-2, 24 h exposure, mean ± S.D., read-out: IC50) was 254 ± 3.4 µM and the IC50 ([11]; Caco-2, 48 h exposure, mean ± S.D., read-out: IC50) was 186 ± 2.27 µM. For the same molecule, the viability at 48 h, 200 µM ([12]; Caco-2, 200 µM) was 39.7%, the IC50 ([13]; conversion of µg/mL value, read-out: IC50) was roughly 100 µM and the IC50 [13] was 30 µg/mL.

Molecule `O=C(O)CNCP(=O)(O)O` [Glyphosate, N-phosphonomethyl-glycine] has an IC50 ([1]; A-431, 24 h) greater than 1000 µM, an IC50 ([1]; A-431, 48 h) greater than 1000 µM and an IC50 ([2]; RAW264.7, 24 h) greater than 1000 µM. For the same molecule, the IC50 ([2]; RAW264.7, 48 h) was greater than 1000 µM, the “effect on cell proliferation” value ([14]; HepG2, up to 3.5 µg/mL (20.7 µM), 4 h and 24 h) was “slight increase in cell proliferation” and the IC50 ([5]; 24 h) was greater than 1000 µM. For the same molecule, the IC50 ([5]; 48 h) was greater than 1000 µM, the “effect on cell viability” value [15] was “did not reduce cell viability” and the “effect on cell viability” value ([15]; listed as GLY) was “not able to induce cell death below 50%”. The IC50 ([6]; SK-MEL-5, 24 h) was greater than 1000 µM, the IC50 ([6]; SK-MEL-5, 48 h) was greater than 1000 µM and the “reduction in cell viability” value ([6]; SK-MEL-5, 1 mM, 24 h) was 23.3%. For the same molecule, the “reduction in cell viability” value ([6]; SK-MEL-5, 1 mM, 48 h) was 18.7%, the “solubility in organic solvents” value [16] was “very low solubility in organic solvents” and the IC50 ([17]; 18 h exposure) was 30000 µM. The IC50 [18] was 11 µM, the effect on cells ([9]; HepG2, concentrations up to 1 mM) was “not affected” and the IC50 ([9]; HepG2, 24 h) was greater than 1000 µM. For the same molecule, the IC50 ([9]; HepG2, 48 h) was greater than 1000 µM, the “effect on cell viability” value ([11]; Caco-2, concentrations up to 1 mM, 24 h or 48 h) was “no significant reduction in cell viability” and the IC50 ([11]; Caco-2, 24 h) was greater than 1000 µM. The IC50 ([11]; Caco-2, 48 h) was greater than 1000 µM, the “concentrations that disrupted Caco-2 monolayers (loss of membrane integrity)” value ([13]; conversion of mg/mL value) was greater than 59000 µM and the “concentrations that disrupted Caco-2 monolayers (loss of membrane integrity)” value [13] was “higher than 10 mg/mL”.

With `O=[N+]([O-])NC1=NCCN1Cc1ccc(Cl)nc1` [Imidacloprid, imidacloprid] the IC50 ([1]; A-431, 24 h) was 573 ± 10.4 µM, the IC50 ([1]; A-431, 48 h) was 389 ± 9.2 µM and the IC50 ([2]; RAW264.7, 24 h) was 306 ± 22.4 µM. The IC50 ([2]; RAW264.7, 48 h) was 307 ± 22.1 µM, the “concentration range dose-dependently reducing cell viability” value ([14]; HepG2, 24 h) was 500 to 2000 µM and the “concentration range dose-dependently reducing cell viability” value ([14]; HepG2, 48 h) was 250 to 2000 µM. The “log Pow” value [4] was 0.57, the IC50 ([5]; 24 h) was 495 ± 19.4 µM and the IC50 ([5]; 48 h) was 482 ± 12.9 µM. For the same molecule, the IC50 ([6]; SK-MEL-5, 24 h) was 507 ± 22.1 µM, the IC50 ([6]; SK-MEL-5, 48 h) was 319 ± 11.5 µM and the “reduction in cell viability” value ([6]; SK-MEL-5, 600 µM, 48 h) was ~ 88%. The “concentration reducing cell viability below 50%” value ([17]; 24 h) was 2350 µM, the IC50 ([9]; HepG2, 24 h) was 624 ± 24.3 µM and the IC50 ([9]; HepG2, 48 h) was 620 ± 10.6 µM. For the same molecule, the H-donor acceptor count [10] was 4, the IC50 ([11]; Caco-2, 24 h) was greater than 1000 µM and the IC50 ([11]; Caco-2, 48 h) was 832 ± 29.6 µM. For the same molecule, the viability at 48 h, 600 µM ([12]; Caco-2, 600 µM, read-out: cell viability (% of control)) was 68.5%, the viability at 48 h, 1 mM ([12]; Caco-2, 1 mM, read-out: cell viability (% of control)) was 27.3% and the cell viability ([13]; Caco-2, 96 h, 0.25 µg/mL) was 81%. The “concentrations cytotoxic / reducing cell viability” value ([13]; Caco-2, 96 h, conversion of µg/mL value) was greater than 0.98 µM and the “concentrations cytotoxic / reducing cell viability” value ([13]; Caco-2, 96 h, formulation from Bayer) was “above 0.25 µg/mL”.

Source: paper PMC9317861, “In Vitro Assessment of Pesticides Toxicity and Data Correlation with Pesticides Physicochemical Properties for Prediction of Toxicity in Gastrointestinal and Skin Contact Exposure” (Toxics, 2022)
